In patent US20230149323A1, “INHIBITORS OF THE INTERACTION OF THE UPAR/FPRS RECEPTORS” (ORPHA BIOTECH S.R.L., priority 2020, published 2023):
Entries after “also recorded” stand apart in the source; their conditions may differ.

Legend:
[1] = molecular target: T1, bond of purified uPAR to the VN (Homo sapiens, UniProt Q03405); test: Bond of soluble biotinylated uPAR to immobilized VN (ELISA); format: binding; conditions: FIG. 2(A): compounds at 50 µM vs DMSO vehicle (100%)
T1 construct: Soluble recombinant uPAR (suPAR; R&D System, Minneapolis, MN, USA); purchased R&D System
T1 sequence (Q03405 23-305 limits assumed): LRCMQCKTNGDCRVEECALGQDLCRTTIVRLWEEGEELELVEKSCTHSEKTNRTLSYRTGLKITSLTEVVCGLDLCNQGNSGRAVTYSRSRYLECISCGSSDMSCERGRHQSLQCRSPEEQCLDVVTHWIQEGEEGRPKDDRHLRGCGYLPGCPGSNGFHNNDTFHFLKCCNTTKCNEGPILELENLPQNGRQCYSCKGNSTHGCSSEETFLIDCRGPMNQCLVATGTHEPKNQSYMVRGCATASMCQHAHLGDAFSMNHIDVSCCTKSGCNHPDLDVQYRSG
Experimental: Soluble recombinant uPAR (suPAR; R&D System, Minneapolis, MN, USA) was biotinylated and purified with the biotinylation module of the proteins ECL Amersham according to the producer’s instructions (GE Healthcare, Buckinghamshire, UK).
The (high-binding) plates with 96 wells (Corning, New York, USA) were covered with 0.5 µg/well of VN (Becton Dickinson Biosciences, Franklin Lakes, NJ, USA) diluted in PBS (0.08 M NaCl, 0.002 M KCl, 0.0115 M Na2HPO4, 0.002 M KH2PO4, pH 7.2) or bovine serum albumin (BSA), as negative control, and incubated at 4° C. for the entire night. After a washing in PBS, the residual bond sites were blocked with 200 µL of BSA at 1% in PBS, for 1 hour at ambient temperature. 25 nmol/L of biotinylated s-uPAR (diluted in PBS, 1 mg/mL of BSA), on its own or in the presence of selected compounds, were placed in the covered wells. The plates were maintained at 4° C. for 1 hour, washed with PBS containing 0.1% Tween 20 and then avidin marked with peroxidase (Amersham), diluted 1:1.500 in PBS containing 10 mg/mL of BSA. After further washings, the substrate of peroxidase o-phenylenediamine (Sigma, St. Louis, MO, USA) was added and left to react for 3 minutes. The reactions were stopped with 1 mol/L H2SO4 and the product was measured at 492 nm by using an automated plate reader (Bio-Rad, Munich, Germany).

[2] = tested on: BJ cells; test: Cell adhesion assay to VN on BJ cells; format: cell-based, human; conditions: FIG. 2(B): BJ cells treated with compounds at 50 µM vs DMSO vehicle (100%)
Experimental: The cell line BJ (ATCC CRL2522) was used as model of human skin fibroblasts. The cells were cultivated in Dulbecco’s Modified Eagle Medium (DMEM) containing fetal bovine serum at 10% (FBS) at 37° C. with CO2 at 5%.
The plates with 96 wells (Nunc, Roskilde, Denmark) were covered with VN (1 µg) or with 100 µl of 1% BSA deactivated with heat in PBS, as negative control, and incubated during the entire night at 4° C. The plates were then blocked 1 hour at ambient temperature with 1% BSA deactivated with heat in 1% PBS. The cells were detached with PBS containing 2 mM of EDTA and washed with DMEM lacking serum, they were counted, plated in the wells with a density of 10^5 cells/well and incubated for 1 hour at 37° C. in the presence of or in the absence of the selected compounds. The cells were then fixed with paraformaldehyde at 3% in PBS for 10 minutes and then incubated with methanol at 2% for 10 minutes. The cells were finally colored for 10 minutes with 0.5% crystal violet in 20% methanol, eluted with 0.1 mol/l of sodium citrate in 50% ethanol (pH 4.2) and the absorbance was measured at 540 nm with a spectrophotometer.

SMILES	inhibitory activity against the interaction of the uPAR with the VN in vitro [1]	inhibitory activity against cell adhesion to the VN [2]
Cc1ccc(C(C)(C)c2ccc(C)cc2O)c(O)c1 [Compound 3, 6,6′-(propan-2,2-diyl)bis(3-methylphenol)]	greater inhibitory activity	greater inhibitory activity
CCCc1cc(-c2ccc(O)c(CCC)c2)ccc1O [Compound 19, 3,3′-dipropyl[1,1′-biphenyl]-4,4′-diol]	greater inhibitory activity	greater inhibitory activity; also recorded: considerable contribution
Cc1cc(Cc2cc(C)cc(C(C)(C)C)c2O)c(O)c(C(C)(C)C)c1 [Compound 20, 6,6′-methylenebis(2-(tert-butyl)-4-methylphenol)]	greater inhibitory activity	greater inhibitory activity; also recorded: considerable contribution
CC(C)(C)c1cc(Cl)c(O)c(Cc2cc(C(C)(C)C)cc(Cl)c2O)c1 [Compound 23, 6,6′-methylenebis(4-(tert-butyl)-2-chlorophenol)]	greater inhibitory activity	greater inhibitory activity; also recorded: considerable contribution
